ChEMBL document CHEMBL5120826, “Effects of β-lapachone and β-nor-lapachone on multidrug efflux transporters and biofilms of Candida glabrata” (Bioorg Med Chem, 2022)
≈ marks a conversion by molar mass, not a printed value. Calls of active or inactive are those of the source. No cut-off for these calls is given here.

Key:
Saccharomyces cerevisiae [1] = test: Antifungal activity against fluconazole resistant Saccharomyces cerevisiae overexpressing CgCdr1p transporter assessed as reduction in fungal growth incubated for 48 hrs by checkboard assay based microplate reader analysis; type: functional
Saccharomyces cerevisiae [2] = test: Antifungal activity against fluconazole resistant Saccharomyces cerevisiae overexpressing CgCdr2p transporter assessed as reduction in fungal growth incubated for 48 hrs by checkboard assay based microplate reader analysis; type: functional
Saccharomyces cerevisiae [3] = test: Indifferent antifungal activity against fluconazole resistant Saccharomyces cerevisiae overexpressing CgCdr1p transporter assessed as fractional inhibitory concentration index incubated for 48 hrs by checkboard assay based microplate reader analysis; type: functional
Saccharomyces cerevisiae [4] = test: Indifferent antifungal activity against fluconazole resistant Saccharomyces cerevisiae overexpressing CgCdr2p transporter assessed as fractional inhibitory concentration index incubated for 48 hrs by checkboard assay based microplate reader analysis; type: functional
Saccharomyces cerevisiae [5] = test: Indifferent antifungal activity against fluconazole resistant Saccharomyces cerevisiae overexpressing CgCdr1p transporter assessed as reduction in fungal growth incubated for 48 hrs in presence of lapachone by checkboard assay based microplate reader analysis; type: functional
Saccharomyces cerevisiae [6] = test: Indifferent antifungal activity against fluconazole resistant Saccharomyces cerevisiae overexpressing CgCdr2p transporter assessed as reduction in fungal growth incubated for 48 hrs in presence of lapachone by checkboard assay based microplate reader analysis; type: functional
Saccharomyces cerevisiae [7] = test: Indifferent antifungal activity against fluconazole resistant Saccharomyces cerevisiae overexpressing CgCdr1p transporter assessed as fractional inhibitory concentration incubated for 48 hrs in presence of lapachone by checkboard assay based microplate reader analysis; type: functional
Saccharomyces cerevisiae [8] = test: Indifferent antifungal activity against fluconazole resistant Saccharomyces cerevisiae overexpressing CgCdr2p transporter assessed as fractional inhibitory concentration incubated for 48 hrs in presence of lapachone by checkboard assay based microplate reader analysis; type: functional
Saccharomyces cerevisiae [9] = test: Indifferent antifungal activity against fluconazole resistant Saccharomyces cerevisiae overexpressing CgCdr1p transporter assessed as reduction in fungal growth incubated for 48 hrs in presence of fluconazole by checkboard assay based microplate reader analysis; type: functional
Saccharomyces cerevisiae [10] = test: Indifferent antifungal activity against fluconazole resistant Saccharomyces cerevisiae overexpressing CgCdr2p transporter assessed as reduction in fungal growth incubated for 48 hrs in presence of fluconazole by checkboard assay based microplate reader analysis; type: functional
Saccharomyces cerevisiae [11] = test: Indifferent antifungal activity against fluconazole resistant Saccharomyces cerevisiae overexpressing CgCdr1p transporter assessed as fractional inhibitory concentration in presence of fluconazole incubated for 48 hrs by checkboard assay based microplate reader analysis; type: functional
Saccharomyces cerevisiae [12] = test: Indifferent antifungal activity against fluconazole resistant Saccharomyces cerevisiae overexpressing CgCdr2p transporter assessed as fractional inhibitory concentration in presence of fluconazole incubated for 48 hrs by checkboard assay based microplate reader analysis; type: functional
Saccharomyces cerevisiae [13] = test: Antifungal activity against fluconazole resistant Saccharomyces cerevisiae overexpressing CgCdr1p transporter assessed as reduction in fungal growth at lower concentration incubated for 48 hrs by serial dilution method; type: functional, organism-based

CC1(C)CCC2=C(O1)C(=O)c1ccccc1C2=O [ALPHA-LAPACHONE]
MIC (Saccharomyces cerevisiae [1]): > 100 µg/mL
MIC (Saccharomyces cerevisiae [2]): > 62.5 µg/mL
fractional inhibitory concentration index (FICI) (Saccharomyces cerevisiae [3]): 2
fractional inhibitory concentration index (FICI) (Saccharomyces cerevisiae [4]): 2
MIC (Saccharomyces cerevisiae [5]): > 100 µg/mL
MIC (Saccharomyces cerevisiae [6]): > 100 µg/mL
FIC (Saccharomyces cerevisiae [7]): 1 µg/mL
FIC (Saccharomyces cerevisiae [8]): 1 µg/mL
MIC (Saccharomyces cerevisiae [9]): 500 µg/mL
MIC (Saccharomyces cerevisiae [10]): 62.5 µg/mL
FIC (Saccharomyces cerevisiae [11]): 1 µg/mL
FIC (Saccharomyces cerevisiae [12]): 1 µg/mL

OC(Cn1cncn1)(Cn1cncn1)c1ccc(F)cc1F
Activity (Saccharomyces cerevisiae [13]): Active

CC1(C)CC2=C(O1)C(=O)c1ccccc1C2=O
MIC (Saccharomyces cerevisiae [1]): > 100 µg/mL
MIC (Saccharomyces cerevisiae [2]): 12.5 µg/mL (≈ 54.8 µM)
fractional inhibitory concentration index (FICI) (Saccharomyces cerevisiae [3]): 2
fractional inhibitory concentration index (FICI) (Saccharomyces cerevisiae [4]): 2
MIC (Saccharomyces cerevisiae [5]): > 100 µg/mL
MIC (Saccharomyces cerevisiae [6]): 12.5 µg/mL
FIC (Saccharomyces cerevisiae [7]): 1 µg/mL
FIC (Saccharomyces cerevisiae [8]): 1 µg/mL
MIC (Saccharomyces cerevisiae [9]): 500 µg/mL
MIC (Saccharomyces cerevisiae [10]): 62.5 µg/mL
FIC (Saccharomyces cerevisiae [11]): 1 µg/mL
FIC (Saccharomyces cerevisiae [12]): 1 µg/mL
